Common to all, as to experiment: relative viability (nuclei count vs DMSO), 5 days (fraction); higher = more cells survive
Compound in test [1]: Nc1ncn([C@H]2C[C@H](O)[C@@H](CO)O2)c(=O)n1 [Decitabine] + CS(=O)(=O)N1CCN(Cc2cc3nc(-c4cccc5[nH]ncc45)nc(N4CCOCC4)c3s2)CC1 [Pictilisib] (partner 1 µM)
In outline:
(§1)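 Medians of duplicate plates are given as relative viability. That measure is the nuclei count in treated wells divided by the count in vehicle wells. Counts were taken on 4× images of lung cancer cell lines in 1536-well plates, 5 days after pin-tool dosing the day after seeding with one drug alone or a fixed anchor-drug dose plus five library-drug doses (not always all listed) in √10 steps.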

Compound in test [2]: Nc1ncn([C@H]2C[C@H](O)[C@@H](CO)O2)c(=O)n1 [Decitabine] + CC(=O)c1c(C)c2cnc(Nc3ccc(N4CCNCC4)cn3)nc2n(C2CCCC2)c1=O [Palbociclib] (partner 0.5 µM)
The essentials: as §1

Compound in test [3]: COc1cc2c(Oc3ccc4[nH]c(C)cc4c3F)ncnc2cc1OCCCN1CCCC1 [Cediranib] + CC1(C)CCC(c2ccc(Cl)cc2)=C(CN2CCN(c3ccc(C(=O)NS(=O)(=O)c4ccc(N[C@H](CCN5CCOCC5)CSc5ccccc5)c(S(=O)(=O)C(F)(F)F)c4)cc3)CC2)C1 [Navitoclax] (partner 0.5 µM)
The essentials: as §1

Compound in test [4]: O=C(C[C@H]1NCCC[C@@H]1O)Cn1cnc2cc(Br)c(Cl)cc2c1=O (racemic) [Halofuginone] + COc1cc2c(Oc3ccc(NC(=O)C4(C(=O)Nc5ccc(F)cc5)CC4)cc3F)ccnc2cc1OCCCN1CCOCC1 [Foretinib] (partner 0.25 µM)
In outline:
as §1

The record followed here is the supplement of paper PMC10307832.

Take UMC-11: the relative viability in test [1] (first compound 0.04 µM) was 0.737; in test [1] (first compound 0.1265 µM) it was 0.794; in test [1] (first compound 0.4 µM), 0.315; in test [1] (first compound 1.265 µM), 0.335; in test [1] (first compound 4 µM) it was 0.271; in test [2] (first compound 0.04 µM), 0.344. Moreover, the relative viability came out at 0.276 in test [2] (first compound 0.1265 µM); 0.313 in test [2] (first compound 0.4 µM); 0.283 in test [2] (first compound 1.265 µM); 0.285 in test [2] (first compound 4 µM); 0.328 in test [3] (first compound 0.04 µM); 0.293 in test [3] (first compound 0.1265 µM). In addition, the relative viability in test [3] (first compound 0.4 µM) was 0.322; in test [3] (first compound 1.265 µM), 0.321; in test [3] (first compound 4 µM), 0.359; in test [4] (first compound 0.001 µM) it was 1.11; in test [4] (first compound 0.003162 µM) it was 1; in test [4] (first compound 0.01 µM), 0.991. Also, the relative viability was 0.848 in test [4] (first compound 0.03162 µM) and 0.72 in test [4] (first compound 0.1 µM).
